Assay [1] deals with thoracic aorta rings of Wistar rat. The experiment in a line: Vascular protective effects with respect to endothelial dysfunction caused by an inhibitor of NOS (LNA), aortic rings. As to conditions: compound at 10^-7 M, LNA 3x10^-7 M, relaxation due to ACh. From the text: Under standard in vitro conditions, relaxation of aortic rings caused by acetylcholine (ACh), which relaxation is entirely dependent on the presence of endothelium, reflects the production of NO (stimulated by ACh), which, by diffusing to smooth muscle cells, brings about arterial relaxation (Nature, 1980, 288, 373).
the first model consists of causing inhibition of the relaxation due to ACh by blocking the enzymatic activity (endothelial NOS) responsible for the production of NO;
The thoracic aorta of a Wistar rat (325-375 g), anaesthetised by the intraperitoneal route using pentobarbital sodium (30 mg/kg), is removed and dissected into rings having a length of 3 mm. Each ring is suspended from an isometric tension sensor connected to a recording system and the initial tension applied is 2.5 g. […]
After a 90-minute stabilisation period, the preparations are contracted using phenylephrine (PHE 10^−6 M) and relaxed by adding 10^−5 M of acetylcholine in order to verify the integrity of the endothelial layer. […] The preparations are again contracted using phenylephrine and, after 30 minutes, the relaxations due to acetylcholine (ACh-10^−8 M to 10^−5 M) are assessed in the presence of indomethacin (10^−5 M).
The relaxation values are expressed as a percentage relative to the maximum contraction caused by PHE. […]

Assay [2] concerns aortic rings of New Zealand rabbits. The assay can be described thus: Protective vascular effects with respect to endothelial dysfunction caused by a system generating O2- (XO-Hypo), aortic rings. As to conditions: compound at 10^-7 M; XO 3 mU/ml, Hypo 10^-4 M; rabbit aortic rings.
In assay [3] the test system is rat aortic rings. The assay can be described thus: Aortic production of cGMP stimulated by ACh in the presence of LNA. Conditions: compound at 3x10 -M (so in the source), 30-minute incubation, ACh 10^-5 M 1 minute, LNA 3x10^-6 M. Here is the method:
By diffusing to the smooth muscle cells, the NO produced by the endothelial cells activates soluble guanylate cyclase, which brings about an increase in cyclic GMP, which is responsible for relaxation.
The rat aortic rings are prepared as previously. The effects of 30-minute incubation of compounds of the invention at different concentrations are assessed on the production of cGMP stimulated by ACh (10^−5 M—1 minute) in the presence of LNA (3×10^−6 M). The said experiments are carried out in the presence of isobutylmethylxanthine (10^−5 M) in order to avoid degradation of the cGMP by phosphodiesterases. The rings are frozen in liquid nitrogen and maintained at −80° C. until the assay is carried out. The cGMP content is assessed by radioimmunoassay and expressed in relation to the amount of proteins contained in the tissue (assay by the Bradford method).

`O=c1c(NCCN2CCC(COc3ccccc3)CC2)c(N2CCc3ccccc32)c1=O` [Example 5, 3-(2,3-Dihydro-1H-indol-1-yl)-4-({2-[4-(Phenoxymethyl)-1-piperidinyl]-ethyl}amino)-3-cyclobutene-1,2-dione and its methanesulphonate]: in assay [1], the “inhibition of the endothelial dysfunction caused by LNA” value came out at 27%. Also, the “inhibition of the endothelial dysfunction caused by the XO-Hypo combination” value in assay [2] was 17%. For the same molecule, the “increase of the production of cGMP stimulated by ACh in the presence of LNA” value in assay [3] is reported as 39%.

(Values after patent publication US20020065419A1, “Cyclobutenedione compounds” (priority 2000, published 2002).)
